Laboratory results as given in patent US20260166039A1 (SCHRÖDINGER, INC., priority 2022, published 2026).

What follows are molecules tested against T1, Wee1 kinase domain (Homo sapiens, UniProt P30291) (assay: Wee1 Kinase Biochemical Assay (ADP-Glo)). Settings: 1 nM Wee1 enzyme, 15 uM ATP, 4 hours at 25° C.
T1 construct: Wee1 kinase domain was purchased from Carna (catalog #05-177); purchased Carna 05-177
In short: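 ADP-Glo detection of ADP produced after 4 h at 25° C by 1 nM Wee1 kinase domain on 2 ng/mL poly(Lys,Tyr 4:1) with 15 uM ATP. Buffer: 40 mM Tris-HCl, 20 mM MgCl2, 0.1 mg/mL BSA, 2 mM DTT. Inhibition is relative to DMSO (high) and saturating Wee1 inhibitor (low) controls.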

T1 sequence (P30291 299-569 limits assumed): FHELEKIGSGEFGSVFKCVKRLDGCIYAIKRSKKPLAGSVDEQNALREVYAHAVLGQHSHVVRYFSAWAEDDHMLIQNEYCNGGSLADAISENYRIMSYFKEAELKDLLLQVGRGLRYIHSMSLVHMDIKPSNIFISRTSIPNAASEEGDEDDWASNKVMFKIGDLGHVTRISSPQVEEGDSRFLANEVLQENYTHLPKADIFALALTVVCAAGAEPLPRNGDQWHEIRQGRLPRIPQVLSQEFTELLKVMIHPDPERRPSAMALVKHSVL

SMILES | IC50
CCn1ccc(Nc2ncc3c(n2)N(c2cccc(N=S(C)(C)=O)n2)[C@@H]2CC(C)(C)OC[C@]32C)n1 (single isomer, unassigned) [Example 830] | < 10 nM
CN1CCN(c2ccc(Nc3ncc4c(n3)N(c3cnccn3)[C@@H]3CC(C)(C)OC[C@]43C)cc2)CC1 (single isomer, unassigned) [Example 827] | < 10 nM

Same assay, conditions: Wee1 kinase domain, 15 uM ATP, ADP-Glo

SMILES | IC50
CN1C[C@@H]2CN(c3ccc(Nc4ncc5c(n4)N(c4cccc(N=S(C)(C)=O)n4)[C@H]4CC(C)(C)OC[C@@]54C)cc3)C[C@@H]2C1 (single isomer, unassigned) [Example 218] | 10 to 100 nM
CNCc1cccc(N2c3nc(Nc4ccc(N5CCC(F)(F)C5)cc4)ncc3[C@]3(C)COC(C)(C)C[C@H]23)n1 (single isomer, unassigned) [Example 21] | 100 to 1000 nM
CNCc1cccc(N2c3nc(Nc4ccc5c(c4)C(=O)N(C)CC5(C)C)ncc3[C@]3(C)COC(C)(C)C[C@H]23)n1 (single isomer, unassigned) [Example 91] | 100 to 1000 nM
CC1(C)C[C@@H]2N(c3cccc(N=S(C)(C)=O)n3)c3nc(Nc4cnn(C5CCOCC5)c4)ncc3[C@]2(C)CO1 (single isomer, unassigned) [Example 186] | 100 to 1000 nM
C[C@H]1COC(=O)N1c1cccc(N2c3nc(Nc4ccc(N5C[C@@H]6C[C@H]5CN6C)c(F)c4)ncc3[C@]3(C)COC(C)(C)C[C@H]23)n1 (single isomer, unassigned) [Example 292] | 10 to 100 nM
CNCc1cccc(N2c3nc(Nc4ccc(N5CCCCC5)cc4)ncc3[C@]3(C)COC(C)(C)C[C@H]23)n1 (single isomer, unassigned) [Example 1] | 10 to 100 nM
CNCc1cccc(N2c3nc(Nc4ccc(N5C[C@@H](C)O[C@@H](C)C5)cc4)ncc3[C@]3(C)COC(C)(C)C[C@H]23)n1 [Example 19, (4bS,8aS)-N-(4-((2S,6R)-2,6-dimethylmorpholino)phenyl)-4b,7,7-trimethyl-9-(6-((methylamino)methyl)pyridin-2-yl)-4b,5,7,8,8a,9-hexahydropyrano[3′,4′:4,5]pyrrolo[2,3-d]pyrimidin-2-amine] | 100 to 1000 nM
CNCc1cccc(N2c3nc(Nc4ccc([C@H]5CCC(=O)N5C)cc4)ncc3[C@]3(C)COC(C)(C)C[C@H]23)n1 (single isomer, unassigned) [Example 53] | ≥ 1000 nM
CC1(C)C[C@H]2N(c3cccc(N=S(C)(C)=O)n3)c3nc(Nc4ccn5ncnc5c4)ncc3[C@@]2(C)CO1 (single isomer, unassigned) [Example 385] | < 10 nM
C[C@H]1COC(=O)N1c1cccc(N2c3nc(Nc4ccc([C@H]5CCNC5)cc4)ncc3[C@]3(C)COC(C)(C)C[C@H]23)n1 (single isomer, unassigned) [Example 278] | 10 to 100 nM
CC1(C)C[C@@H]2N(c3cccc(N=S(C)(C)=O)n3)c3nc(Nc4ccc([C@H]5CCCN5)nc4)ncc3[C@]2(C)CO1 (single isomer, unassigned) [Example 211] | 10 to 100 nM
CNCc1cccc(N2c3nc(Nc4ccc(N5CCCOCC5)cc4)ncc3[C@]3(C)COC(C)(C)C[C@H]23)n1 (single isomer, unassigned) [Example 17] | 100 to 1000 nM
CNCc1cccc(N2c3nc(Nc4ccc([C@H]5CC(=O)N(C)C5)cc4)ncc3[C@]3(C)COC(C)(C)C[C@H]23)n1 (single isomer, unassigned) [Example 67] | 100 to 1000 nM
CN1Cc2cc(Nc3ncc4c(n3)N(c3cccc(N=S(C)(C)=O)n3)[C@H]3CC(C)(C)OC[C@@]43C)ccc2C2(CC2)C1 (single isomer, unassigned) [Example 108] | 10 to 100 nM
C[C@H]1COC(=O)N1c1cccc(N2c3nc(Nc4ccc(C5CNC5)cc4)ncc3[C@]3(C)COC(C)(C)C[C@H]23)n1 (single isomer, unassigned) [Example 308] | 10 to 100 nM
CNCc1cccc(N2c3nc(Nc4ccc(N5C(=O)CC[C@H]5C)cc4)ncc3[C@]3(C)COC(C)(C)C[C@H]23)n1 (single isomer, unassigned) [Example 29] | 10 to 100 nM
CN1CC(c2ccc(Nc3ncc4c(n3)N(c3cccc(N=S(C)(C)=O)n3)[C@H]3CC(C)(C)OC[C@@]43C)cn2)C1 (single isomer, unassigned) [Example 193] | 100 to 1000 nM
CC1(C)C[C@H]2N(c3cccc(N=S(C)(C)=O)n3)c3nc(Nc4ccc([C@@]5(C)CCNC5)cc4)ncc3[C@@]2(C)CO1 (single isomer, unassigned) [Example 174] | 10 to 100 nM
Cc1cc(Nc2ncc3c(n2)N(c2cccc(N4C(=O)OC[C@@H]4C)n2)[C@H]2CC(C)(C)OC[C@@]32C)ccc1N1C[C@@H]2C[C@H]1CN2C (single isomer, unassigned) [Example 294] | 10 to 100 nM
CNCc1cccc(N2c3nc(NC45CC(C4)C5)ncc3[C@@]3(C)COC(C)(C)C[C@@H]23)n1 [Example 89, (4bR,8aR)-N-(bicyclo[1.1.1]pentan-1-yl)-4b,7,7-trimethyl-9-(6-((methylamino)methyl)pyridin-2-yl)-4b,5,7,8,8a,9-hexahydropyrano[3′,4′:4,5]pyrrolo[2,3-d]pyrimidin-2-amine] | ≥ 1000 nM

Same assay, conditions: class symbols; 1 nM Wee1 enzyme, 15 uM ATP, 4 hours at 25° C.

SMILES | IC50
CN1CC2(C1)CN(c1ccc(Nc3ncc4c(n3)N(c3cccc(N5C(=O)CCC5(C)C)n3)[C@@H]3CC(C)(C)OC[C@]43C)cc1)C2 (single isomer, unassigned) [Example 786] | < 10 nM
CN1CC[C@@H](Oc2ccc(Nc3ncc4c(n3)N(c3cccc(N5CCOC5=O)n3)[C@H]3CC(C)(C)OC[C@@]43C)cc2)C1 [Example 625, 3-(6-((4bS,8aS)-4b,7,7-trimethyl-2-((4-(((R)-1-methylpyrrolidin-3-yl)oxy)phenyl)amino)-4b,7,8,8a-tetrahydropyrano[3′,4′:4,5]pyrrolo[2,3-d]pyrimidin-9(5H)-yl)pyridin-2-yl)oxazolidin-2-one] | 10 to 100 nM
CNCc1cccc(N2c3nc(NC(=O)[C@H]4C[C@@H]4c4ccccc4)ncc3[C@@]3(C)COC(C)(C)C[C@@H]23)n1 [Example 761, (1S,2S)-2-phenyl-N-((4bR,8aR)-4b,7,7-trimethyl-9-(6-((methylamino)methyl)pyridin-2-yl)-4b,5,7,8,8a,9-hexahydropyrano[3′,4′:4,5]pyrrolo[2,3-d]pyrimidin-2-yl)cyclopropane-1-carboxamide] | 10 to 100 nM
CN[C@]1(C)CCc2ccc(N3c4nc(Nc5ccc(N6CCOCC6)cc5)ncc4[C@]4(C)COC(C)(C)C[C@H]34)nc21 (single isomer, unassigned) [Example 570] | 100 to 1000 nM
C[C@H]1CCC(=O)N1c1cccc(N2c3nc(Nc4ccc(N5C[C@@H]6C[C@H]5CN6C)cc4)ncc3[C@]3(C)COC(C)(C)C[C@H]23)n1 [Example 650, (S)-5-methyl-1-(6-((4bS,8aS)-4b,7,7-trimethyl-2-((4-((1S,4S)-5-methyl-2,5-diazabicyclo[2.2.1]heptan-2-yl)phenyl)amino)-4b,7,8,8a-tetrahydropyrano[3′,4′:4,5]pyrrolo[2,3-d]pyrimidin-9(5H)-yl)pyridin-2-yl)pyrrolidin-2-one] | 10 to 100 nM
C[C@H]1CCC(=O)N1c1cccc(N2c3nc(Nc4ccc(N5CCN(C)CC5)cc4)ncc3[C@]3(C)COC(C)(C)C[C@H]23)n1 (single isomer, unassigned) [Example 582] | 100 to 1000 nM
CN1C[C@@H]2C[C@H]1CN2c1ccc(Nc2ncc3c(n2)N(c2cccc(N4CCOC4=O)n2)[C@H]2CC(C)(C)OC[C@@]32C)cc1F [Example 677, 3-(6-((4bS,8aS)-2-((3-fluoro-4-((1S,4S)-5-methyl-2,5-diazabicyclo[2.2.1]heptan-2-yl)phenyl)amino)-4b,7,7-trimethyl-4b,7,8,8a-tetrahydropyrano[3′,4′:4,5]pyrrolo[2,3-d]pyrimidin-9(5H)-yl)pyridin-2-yl)oxazolidin-2-one] | 10 to 100 nM
Cc1cc(Nc2ncc3c(n2)N(c2cccc([C@H]4CCCN4)n2)[C@H]2CC(C)(C)OC[C@@]32C)ccc1N1CCOCC1 (single isomer, unassigned) [Example 521] | 100 to 1000 nM
CN1C[C@H]2C[C@@H]1CN2c1ccc(Nc2ncc3c(n2)N(c2cccc(C(C)(C)O)n2)[C@H]2CC(C)(C)OC[C@@]32C)cc1Cl (single isomer, unassigned) [Example 434] | 10 to 100 nM
CN1CC2CC1CN2c1ccc(Nc2ncc3c(n2)N(c2cccc(N=S(C)(C)=O)c2)C2CC(C)(C)OCC32C)cc1 (single isomer, unassigned) [Example 711] | 100 to 1000 nM
CN1CC[C@@H]2CN(c3ccc(Nc4ncc5c(n4)N(c4cccc(N6CCOC6=O)n4)[C@H]4CC(C)(C)OC[C@@]54C)cc3)C[C@@H]21 [Example 706, 3-(6-((4bS,8aS)-4b,7,7-trimethyl-2-((4-((3aR,6aR)-1-methylhexahydropyrrolo[3,4-b]pyrrol-5(1H)-yl)phenyl)amino)-4b,7,8,8a-tetrahydropyrano[3′,4′:4,5]pyrrolo[2,3-d]pyrimidin-9(5H)-yl)pyridin-2-yl)oxazolidin-2-one] | 10 to 100 nM
CC1(C)C[C@H]2N(c3cccc(N=S(C)(C)=O)n3)c3nc(NC(=O)c4cccnc4)ncc3[C@@]2(C)CO1 (single isomer, unassigned) [Example 405] | 10 to 100 nM
CC1(C)C[C@@H]2N(c3cccc(N4CCOC4=O)n3)c3nc(Nc4ccc(O[C@@H]5CCNC5)cc4)ncc3[C@]2(C)CO1 [Example 623, 3-(6-((4bS,8aS)-4b,7,7-trimethyl-2-((4-(((R)-pyrrolidin-3-yl)oxy)phenyl)amino)-4b,7,8,8a-tetrahydropyrano[3′,4′:4,5]pyrrolo[2,3-d]pyrimidin-9(5H)-yl)pyridin-2-yl)oxazolidin-2-one] | 10 to 100 nM
CN1CC[C@H](Oc2ccc(Nc3ncc4c(n3)N(c3cccc(N5CCCC5=O)n3)[C@H]3CC(C)(C)OC[C@@]43C)cc2)C1 [Example 619, 1-(6-((4bS,8aS)-4b,7,7-trimethyl-2-((4-(((S)-1-methylpyrrolidin-3-yl)oxy)phenyl)amino)-4b,7,8,8a-tetrahydropyrano[3′,4′:4,5]pyrrolo[2,3-d]pyrimidin-9(5H)-yl)pyridin-2-yl)pyrrolidin-2-one] | 10 to 100 nM
